Measurements: patent publication US20250110108A1 (priority 2022, published 2025)

Settings: in vivo

Substance | concentration range in urine | median concentration in urine | share of ΣAs in urine
Arsenic acid [As^V] | 0 to 12.1 ng/mL | 1.12 µg/L | –
Arsenious acid [As^III] | 2.13 to 101 ng/mL | 13.8 µg/L | 3.8-36.9%
